Results as given in US12180193B2, “Accelerating fibrosarcoma protein degrading compounds and associated methods of use” (Arvinas Operations, Inc., priority 2020, dated 2024).

Columns and labels:
[1] = target: T1, BRAF G466V (Homo sapiens, UniProt P15056, G466V); assay: Cellular assay of target protein degradation, T-Rex 293 cells stably transfected with HA-BRAF G466V (HA immunofluorescence, high content imaging); assay type: cell-based; conditions: T-Rex 293 HA-BRAF G466V; for DC50: half maximal degradation, read-out: BRaf G466V DC50; for Dmax: maximum degradation observed
T1 construct: expressed in transfected cells
T1 sequence (P15056 whole entry G466V): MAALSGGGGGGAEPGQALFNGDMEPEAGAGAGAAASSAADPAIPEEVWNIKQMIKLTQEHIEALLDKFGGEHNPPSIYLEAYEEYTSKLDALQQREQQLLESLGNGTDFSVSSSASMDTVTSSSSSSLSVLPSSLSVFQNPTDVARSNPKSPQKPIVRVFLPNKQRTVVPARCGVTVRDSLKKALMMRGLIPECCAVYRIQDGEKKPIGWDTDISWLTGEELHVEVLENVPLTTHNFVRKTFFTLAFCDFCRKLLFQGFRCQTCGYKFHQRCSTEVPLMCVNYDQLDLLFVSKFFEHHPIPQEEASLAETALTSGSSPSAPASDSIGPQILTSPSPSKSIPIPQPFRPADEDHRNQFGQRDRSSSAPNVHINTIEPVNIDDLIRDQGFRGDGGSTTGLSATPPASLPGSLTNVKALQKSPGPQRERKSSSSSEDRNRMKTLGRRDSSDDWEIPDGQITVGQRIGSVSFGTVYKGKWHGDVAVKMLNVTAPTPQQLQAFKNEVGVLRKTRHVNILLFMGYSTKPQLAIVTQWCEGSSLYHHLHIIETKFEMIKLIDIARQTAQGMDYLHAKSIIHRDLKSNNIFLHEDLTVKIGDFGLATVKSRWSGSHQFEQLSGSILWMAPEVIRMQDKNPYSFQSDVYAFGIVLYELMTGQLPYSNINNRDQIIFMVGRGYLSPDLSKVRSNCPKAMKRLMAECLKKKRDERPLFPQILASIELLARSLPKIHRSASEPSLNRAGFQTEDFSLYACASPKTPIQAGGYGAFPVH
Experimental: Protocol for a cellular assay of target protein degradation (T-Rex 293 cells). T-Rex 293 cells were purchased from Invitrogen (#R71007), and stably transfected with a pcDNA4/TO_HA-BRAF G466V construct, using 400 ug Zeocin for selection. G466V cells are plated in Dulbecco's Modified Eagle Medium (DMEM; Gibco #11965118) containing 10% fetal bovine serum (FBS; Gibco #16000044) and 0.75 ng/mL doxycycline (Selleckchem #4163) at a density of 5,000 cells/well in 50 μl on poly-D-lysine (PDL) coated, black clear bottom 96-well plates (Corning #354640) and incubated for 24 hours at 37° C. with 5% CO2. The following day 50 ul of tested compound was added at 2x concentration in DMEM with a final concentration ranging from 30 nM to 3 pM in 0.1% dimethylsulfoxide (DMSO), and incubated for 24 hours at 37° C. with 5% CO2. At the end of the experimental treatment, the media was flicked off and cells washed once with phosphate-buffered saline (PBS)++ (PBS with CaCl and MgCl) and gently replacing with 200 μl PBS++ per well. The PBS++ was removed and 50 uL 4% paraformaldehyde (PFA; EMS #15710) in PBS++ was added, and incubate at room temperature for 15 minutes. Cells were washed once with PBS++ and 50 uL 0.1% Triton X-100 (Fisher #BP151-500) in PBS++ was added. Plate was incubate for 5 minutes at room temperature. Cells were was once with PBS++. Cells were blocked with 100 uL Licor blocking buffer (Licor #927-50000) for 1 hour at room temperature. Next, 50 uL of HA antibody (CST #3724) at 1:1000 in Licor blocking buffer was added, and the plate incubate overnight at 4° C. The plates were parafilmed to prevent evaporation. Plate was washed three times with 200 uL PBS++. Fifty microliters of HCS secondary antibody solution [1:1000 Hoechst (Invitrogen #H3570), 1:1000 phalloidin (Invitrogen #A22287) and 1:5000 Alexa fluor (Invitrogen #A11008)] was added and incubated for 1 hour. Plate was wash three times with 200 uL PBS++, and imaged on a high content reader (ImageXpress Micro XLS, Molecular Devices).
(§1) The concentration of exemplary compound that leads to half maximal degradation (DC50) as well as the maximum degradation observed (Dmax, conventionally expressed as a percentage of control), which are below in Table 2 for the exemplary compounds of Table 1.

[2] = target: T2, BRAF V600E (Homo sapiens, UniProt P15056, V600E); assay: Cellular assay of target protein degradation, T-Rex 293 cells stably transfected with HA-BRAF_V600E (HA immunofluorescence, high content imaging); assay type: cell-based; conditions: T-Rex 293 HA-BRAF V600E; for DC50: half maximal degradation, read-out: BRaf V600E DC50; for Dmax: maximum degradation observed
T2 construct: expressed in transfected cells
T2 sequence (P15056 whole entry V600E): as the sequence (P15056 whole entry G466V) above, with V466G, V600E counted along it
Experimental: Protocol for a cellular assay of target protein degradation (T-Rex 293 cells). T-Rex 293 cells were purchased from Invitrogen (#R71007), and stably transfected with a pcDNA4/TO_HA-BRAF_V600E construct, using 400 ug Zeocin for selection. V600e cells are plated in Dulbecco's Modified Eagle Medium (DMEM; Gibco #11965118) containing 10% fetal bovine serum (FBS; Gibco #16000044) and 1 ng/mL doxycycline (Selleckchem #4163) at a density of 5,000 cells/well in 50 μl on poly-D-lysine (PDL) coated, black clear bottom 96-well plates (Corning #354640) and incubated for 24 hours at 37° C. with 5% C02. The following day 50 ul of tested compound was added at 2x concentration in DMEM with a final concentration ranging from 1 μM to 0.1 nM in 0.1% dimethylsulfoxide (DMSO), and incubated for 24 hours at 37° C. with 5% CO2. At the end of the experimental treatment, the media was flicked off and cells washed once with phosphate-buffered saline (PBS)++ (PBS with CaCl and MgCl) and gently replacing with 200 μl PBS++ per well. The PBS++ was removed and 50 uL 4% paraformaldehyde (PFA; EMS #15710) in PBS++ was added, and incubate at room temperature for 15 minutes. Cells were washed once with PBS++ and 50 uL 0.1% Triton X-100 (Fisher #BP151-500) in PBS++ was added. Plate was incubate for 5 minutes at room temperature. Cells were was once with PBS++. Cells were blocked with 100 uL Licor blocking buffer (Licor #927-50000) for 1 hour at room temperature. Next, 50 uL of HA antibody (CST #3724) at 1:1000 in Licor blocking buffer was added, and the plate incubate overnight at 4° C. The plates were parafilmed to prevent evaporation. Plate was washed three times with 200 uL PBS++. Fifty microliters of HCS secondary antibody solution [1:1000 Hoechst (Invitrogen #H3570), 1:1000 phalloidin (Invitrogen #A22287) and 1:5000 Alexa fluor (Invitrogen #A11008)] was added and incubated for 1 hour. Plate was wash three times with 200 uL PBS++, and imaged on a high content reader (ImageXpress Micro XLS, Molecular Devices).
as §1

SMILES	DC50 [1] [nM]	Dmax [1] [%]	DC50 [2] [nM]	Dmax [2] [%]
COc1cc(N2CC3(CN(CCc4ccc(-c5cnc6[nH]cc(C(=O)c7c(F)ccc(NS(=O)(=O)N8CC[C@@H](F)C8)c7F)c6c5)cc4)C3)C2)cc2c1C(=O)N(C1CCC(=O)NC1=O)C2 (stereo partly drawn) [Compound 21, (3R)-N-(3-{5-[4-(2-{6-[2-(2,6-dioxopiperidin-3-yl)-7-methoxy-1-oxo-2,3-dihydro-1H-isoindol-5-yl]-2,6-diazaspiro[3.3]heptan-2-yl}ethyl)phenyl]-1H-pyrrolo[2,3-b]pyridine-3-carbonyl}-2,4-difluorophenyl)-3-fluoropyrrolidine-1-sulfonamide]	1 to 10	35 to 70	5 to 50	35 to 70
O=C1CCC(c2ccc(C3CCN(CC4CCN(c5ccc(-c6cnc7[nH]cc(C(=O)c8c(F)ccc(NS(=O)(=O)N9CC[C@@H](F)C9)c8F)c7c6)cc5)CC4)CC3)cc2F)C(=O)N1 (stereo partly drawn) [Compound 168, (3R)-N-[3-(5-{4-[4-({4-[4-(2,6-dioxopiperidin-3-yl)-3-fluorophenyl]piperidin-1-yl}methyl)piperidin-1-yl]phenyl}-1H-pyrrolo[2,3-b]pyridine-3-carbonyl)-2,4-difluorophenyl]-3-fluoropyrrolidine-1-sulfonamide]	1 to 10	> 70	5 to 50	< 35
O=C1CC[C@H](NC(=O)c2ccc(N3CC4(CN(CCc5ccc(-c6cnc7[nH]cc(C(=O)c8c(F)ccc(NS(=O)(=O)N9CC[C@@H](F)C9)c8F)c7c6)cc5)C4)C3)cc2F)C(=O)N1 [Compound 373, 4-[6-(2-[4-[3-(2,6-difluoro-3-[[(3R)-3-fluoropyrrolidin-1-ylsulfonyl]amino]benzoyl)-1H-pyrrolo[2,3-b]pyridin-5-yl]phenyl]ethyl)-2,6-diazaspiro[3.3]heptan-2-yl]-N-[(3S)-2,6-dioxopiperidin-3-yl]-2-fluorobenzamide]	1 to 10	> 70	5 to 50	35 to 70
O=C1CCC(N2Cc3cc(N4CCN(CC5CN(c6ccc(-c7cnc8[nH]cc(C(=O)c9c(F)ccc(NS(=O)(=O)N%10CC[C@@H](F)C%10)c9F)c8c7)cn6)C5)CC4)ccc3C2=O)C(=O)N1 (stereo partly drawn) [Compound 101, (3R)-N-[3-(5-{6-[3-({4-[2-(2,6-dioxopiperidin-3-yl)-1-oxo-2,3-dihydro-1H-isoindol-5-yl]piperazin-1-yl}methyl)azetidin-1-yl]pyridin-3-yl}-1H-pyrrolo[2,3-b]pyridine-3-carbonyl)-2,4-difluorophenyl]-3-fluoropyrrolidine-1-sulfonamide]	1 to 10	> 70	5 to 50	35 to 70
CCCS(=O)(=O)Nc1ccc(F)c(C(=O)c2c[nH]c3ncc(-c4ccc(N5CCN(CC6CCN(c7ccc8c(c7)CN([C@H]7CCC(=O)NC7=O)C8=O)CC6)CC5)cc4)cc23)c1F [Compound 243, N-{3-[5-(4-{4-[(1-{2-[(3S)-2,6-dioxopiperidin-3-yl]-1-oxo-2,3-dihydro-1H-isoindol-5-yl}piperidin-4-yl)methyl]piperazin-1-yl}phenyl)-1H-pyrrolo[2,3-b]pyridine-3-carbonyl]-2,4-difluorophenyl}propane-1-sulfonamide]	1 to 10	> 70	5 to 50	35 to 70

Next, values leading:

DC50 [1] [nM]	Dmax [1] [%]	DC50 [2] [nM]	Dmax [2] [%]	SMILES
< 1	35 to 70	5 to 50	35 to 70	N#Cc1cc(-c2cnc3[nH]cc(C(=O)c4c(F)ccc(NS(=O)(=O)N5CC[C@@H](F)C5)c4F)c3c2)ccc1N1CCC(CN2CCC(c3ccc4c(c3)CN([C@H]3CCC(=O)NC3=O)C4=O)CC2)CC1 [Compound 205, (3R)—N-{3-[5-(3-cyano-4-{4-[(4-{2-[(3S)-2,6-dioxopiperidin-3-yl]-1-oxo-2,3-dihydro-1H-isoindol-5-yl}piperidin-1-yl)methyl]piperidin-1-yl}phenyl)-1H-pyrrolo[2,3-b]pyridine-3-carbonyl]-2,4-difluorophenyl}-3-fluoropyrrolidine-1-sulfonamide]
< 1	35 to 70	50 to 500	> 70	O=C1CC[C@H](N2Cc3cc(C4CN(CC5CCN(c6ccc(-c7cnc8[nH]cc(C(=O)c9c(F)ccc(NS(=O)(=O)N%10CC[C@@H](F)C%10)c9F)c8c7)cc6)CC5)C4)ccc3C2=O)C(=O)N1 [Compound 83, (3R)-N-{3-[5-(4-{4-[(3-{2-[(3S)-2,6-dioxopiperidin-3-yl]-1-oxo-2,3-dihydro-1H-isoindol-5-yl}azetidin-1-yl)methyl]piperidin-1-yl}phenyl)-1H-pyrrolo[2,3-b]pyridine-3-carbonyl]-2,4-difluorophenyl}-3-fluoropyrrolidine-1-sulfonamide]
> 30	–	5 to 50	35 to 70	O=C1CC[C@@H](N2Cc3cc(CN4C[C@@H]5CN(c6ccc(-c7cnc8[nH]cc(C(=O)c9c(F)ccc(NS(=O)(=O)N%10CC[C@@H](F)C%10)c9F)c8c7)cc6)C[C@@H]5C4)ccc3C2=O)C(=O)N1 [Compound 77, (3R)-N-[3-(5-{4-[(3aR,6aS)-5-({2-[(3R)-2,6-dioxopiperidin-3-yl]-1-oxo-2,3-dihydro-1H-isoindol-5-yl}methyl)-octahydropyrrolo[3,4-c]pyrrol-2-yl]phenyl}-1H-pyrrolo[2,3-b]pyridine-3-carbonyl)-2,4-difluorophenyl]-3-fluoropyrrolidine-1-sulfonamide]
1 to 10	> 70	5 to 50	35 to 70	O=C1CC[C@H](N2Cc3cc([C@@H](O)CCN4CCC(c5ccc(-c6cnc7[nH]cc(C(=O)c8c(F)ccc(NS(=O)(=O)N9CC[C@@H](F)C9)c8F)c7c6)cc5)CC4)ccc3C2=O)C(=O)N1 [Compound 71, (3R)-N-{3-[5-(4-{1-[(3S)-3-{2-[(3S)-2,6-dioxopiperidin-3-yl]-1-oxo-2,3-dihydro-1H-isoindol-5-yl}-3-hydroxypropyl]piperidin-4-yl}phenyl)-1H-pyrrolo[2,3-b]pyridine-3-carbonyl]-2,4-difluorophenyl}-3-fluoropyrrolidine-1-sulfonamide]
1 to 10	> 70	5 to 50	< 35	O=C1CCC(N2Cc3cc(N4CCCN(CC5CCN(c6ccc(-c7cnc8[nH]cc(C(=O)c9c(F)ccc(NS(=O)(=O)N%10CC[C@@H](F)C%10)c9F)c8c7)cc6)CC5)CC4)ccc3C2=O)C(=O)N1 (stereo partly drawn) [Compound 324, (3R)-N-[3-(5-{4-[4-({4-[2-(2,6-dioxopiperidin-3-yl)-1-oxo-2,3-dihyrdo-1H-isoindol-5-yl]-1,4-diazepan-1-yl}methyl)piperidin-1-yl]phenyl}-1H-pyrrolo[2,3-b]pyridine-3-carbonyl)-2,4-difluorophenyl]-3-fluoropyrrolidine-1-sulfonamide]
